Data reported in the NIST ThermoML archive (doi:10.1021/je0505265).
± gives the expanded uncertainty stated by the source.

Settings: Crystal; DTA

In the case of CC[C@H]1OC(=O)[C@H](C)[C@@H](O[C@H]2C[C@@](C)(OC)[C@@H](O)[C@H](C)O2)[C@H](C)[C@@H](O[C@@H]2O[C@H](C)C[C@H](N(C)C)[C@H]2O)[C@](C)(O)C[C@@H](C)C(=O)[C@H](C)[C@@H](O)[C@]1(C)O.O.O [erythromycin A dihydrate], the Normal melting temperature is reported as 137.7 ± 0.5 °C.
